# Measurements: patent US11753373B2, “Protease inhibitors as antivirals” (priority 2021, dated 2023)
# Like-named read-outs stand apart in the source and are kept apart here.
# Experiments:
# SARS-CoV-2 = experiment: Anti-viral in vitro PRNT assay in Vero E6 cells; format: cell-based; conditions: for EC50: read-out: anti-SARS-CoV2 (PRNT) in Vero E6 EC50
# [1] = format: in vitro ADME, Human; conditions: extraction ratio, compound at 1 uM, human liver microsomes 0.5 mg/mL
# Protocol: (§1) Metabolic stability of novel protease inhibitors was determined via liver microsomal stability assay. Human, mouse, SD rat, beagle dog or monkey liver microsomes were incubated with the test compound for 5 to 60 minutes at 37° C., and then the remaining parent compound was quantified by LC-MS/MS. Percentage of the test compound remaining, half-life (t1/2), in vitro intrinsic clearance (CLint, in vitro), in vivo intrinsic clearance (CLint, in vivo), hepatic clearance (CLh) and extraction ratio (ER) were calculated.
# (§2) Procedure: The assay was done as described in Baranczewski, P. et al. (2006) Pharmacological Reports 58:453-472; Pearson, P. and Wienkers, L. (2008) Handbook of Drug Metabolism, 2nd Edition. CRC Pres, P.478; and Venkatesh, P. et al. (2007) Biol. Pharm. Bull. 30:1021-2024. 0.625 mg/mL liver microsomes solution was prepared by mixing 2325 μL 100 mM of K-phosphate buffer (pH 7.4) containing 2.5 mM of MgCl2, 1.25 mM of EDTA, and 75 μL microsomes (20 mg/mL) in a vial for each species.
# (§3) Positive control compound: (±) Verapamil hydrochloride (Cat No.: V4629; Lot No.: MKBV4993V; Source: Sigma)
# (§4) 40 μL aliquots of the liver microsome/test compound mixture were dispensed into 96-well plate in triplicate and pre-warmed the mixture for 5 minutes at 37° C. Then, 10 μL of 5 mM NADPH solution was added to each well to initiate the reaction, and gently mixed. The samples were incubated at 37° C. with gentle shaking.
# (§5) For 0-min samples, 200 μL of ACN containing internal standard was added to 40 μL of liver microsome/test compound mixture, followed by addition of 5 mM NADPH, and mixed gently.
# (§6) For negative control: 40 μL of liver microsome/test compound mixture was incubated at 37° C. with gentle shaking for 60 minutes, followed by addition of 200 μL ACN containing 1% FA and internal standard and 10 μL of 5 mM NADPH, mixed gently.
# (§7) All samples were centrifuged at 4° C. for 20 minutes at 4,000 rpm. Then, 100 μL of the supernatant from each sample was transferred to a new 96-well plate and 100 μL of ultrapure water containing 1% FA was added to each well, and mixed gently. Samples were analyzed by LC-MS/MS.
# (§8) Data Analysis: Peak area ratio (Peak Area of test compound/Peak Area of internal standard) was used to represent the concentration of compound in each sample. The remaining percentage (% Remaining) at appointed time points was calculated versus the concentration of compound at 0 min. The Ln value of the remaining percentage was linearly fitted against the incubation time.
# (§9) The half-life and clearance were calculated using the following equations:
# (§10) Determined percent of the remaining test compound: % remaining=[area at tx/average areas at t0]×100 (1) % metabolized=[100−% remaining] (2)
# (§11) Calculated the half-life (t1/2) using the slope (k) of the log-linear regression from the concentration of remaining parent compound versus time (min) relationship: t1/2 (min)=−ln 2/k. (3)
# (§12) Clint, in vitro (mL/min/mg) Clint,in vitro=k/c,(c:Liver microsome concentration in the incubation system) (4)
# (§13) Hepatic Clearance (CLh) CLh=Clint,in vivo*Hepatic Blood Flow (mL/min/kg)/(Hepatic Blood Flow (mL/min/kg)+Clint,in vivo) (6)
# (§14) Extraction ratio (ER): ER=CLint,in vivo/(Qh+CLint,in vivo)*100,Qh:liver blood flow (7)
# [2] = format: in vitro ADME; conditions: extraction ratio, compound at 1 uM; for Liver Microsomal Stability (ER) SD rat: SD rat liver microsomes 0.5 mg/mL; for Liver Microsomal Stability (ER) Beagle dog: beagle dog liver microsomes 0.5 mg/mL; for Liver Microsomal Stability (ER) Mouse: mouse liver microsomes 0.5 mg/mL
# Protocol: as §1, §2, §3
# as §4, with “shaking. (Final concentrations: compound=1 μM; liver microsomes protein=0.5 mg/mL; MgCl2=2 mM; EDTA=1 mM; ACN=0.1%; DMSO=0.05%).” for “shaking.”
# as §5, §6, §7, §8, §9, §10, §11, §12, §13, §14
# [3] = Vero E6 cells, 1000 pfu, 3 days, plaque reduction
smiles,measurement,setting,value
"COC(=O)[C@H](C[C@@H]1CCNC1=O)NC(=O)[C@H](CC(C)C)NC(=O)c1cc2ccccc2[nH]1 [Compound A-1-a, methyl (S)-2-((S)-2-(1H-indole-2-carboxamido)-4-methylpentanamido)-3-((S)-2-oxopyrrolidin-3-yl)propanoate]",anti-SARS-CoV2 (PRNT) in Vero E6 EC50 (μM),SARS-CoV-2; [3],inactive
"CC(C)C[C@H](NC(=O)c1cc2ccccc2[nH]1)C(=O)N[C@@H](C[C@@H]1CCNC1=O)C(=O)O [Compound A-1-e, (2S)-2-[(2S)-2-[(1H-indol-2-yl)formamido]-4-methylpentanamido]-3-[(3S)-2-oxopyrrolidin-3-yl]propanoic acid]",Liver Microsomal Stability (ER) Human,[1],0.00
same,Liver Microsomal Stability (ER) SD rat,[2],−0.02
same,Liver Microsomal Stability (ER) Beagle dog,[2],0.02
same,Liver Microsomal Stability (ER) Mouse,[2],0.09
O=C[C@H](C[C@@H]1CCNC1=O)NC(=O)[C@H](CC1CCCCC1)NC(=O)c1cc2ccccc2[nH]1 [Compound A-2-c],EC50,SARS-CoV-2,640 nM
CC(C)C[C@@H](NC(=O)c1cc2c(F)cccc2[nH]1)C(=O)N[C@H](C#N)C[C@@H]1CCNC1=O [Compound A-3-b],Liver Microsomal Stability (ER) Human,[1],0.18
same,Liver Microsomal Stability (ER) SD rat,[2],0.37
same,Liver Microsomal Stability (ER) Beagle dog,[2],0.06
same,Liver Microsomal Stability (ER) Mouse,[2],0.37
CC(C)C[C@H](NC(=O)c1cc2c(F)cccc2[nH]1)C(=O)N[C@H](C=O)C[C@@H]1CCNC1=O [Compound A-3-c],EC50,SARS-CoV-2; [3],310 nM
same,Liver Microsomal Stability (ER) Human,[1],0.18
same,Liver Microsomal Stability (ER) SD rat,[2],0.14
same,Liver Microsomal Stability (ER) Beagle dog,[2],−0.02
same,Liver Microsomal Stability (ER) Mouse,[2],0.14
COc1cccc2[nH]c(C(=O)N[C@@H](CC(C)C)C(=O)N[C@H](C=O)C[C@@H]3CCNC3=O)cc12 [Compound A-5-a],EC50,SARS-CoV-2; [3],1520 nM
same,Liver Microsomal Stability (ER) Human,[1],0.10
same,Liver Microsomal Stability (ER) SD rat,[2],0.11
same,Liver Microsomal Stability (ER) Beagle dog,[2],0.05
same,Liver Microsomal Stability (ER) Mouse,[2],0.19
COc1cccc2[nH]c(C(=O)N[C@@H](CC(C)C)C(=O)N[C@H](C#N)C[C@@H]3CCNC3=O)cc12 [Compound A-5-b],anti-SARS-CoV2 (PRNT) in Vero E6 EC50 (μM),SARS-CoV-2; [3],inactive
same,Liver Microsomal Stability (ER) Human,[1],0.08
same,Liver Microsomal Stability (ER) SD rat,[2],0.22
same,Liver Microsomal Stability (ER) Beagle dog,[2],0.12
same,Liver Microsomal Stability (ER) Monkey,[2]; monkey liver microsomes 0.5 mg/mL,0.47
same,Liver Microsomal Stability (ER) Mouse,[2],0.11
COc1cccc2[nH]c(C(=O)N[C@@H](CC(C)C)C(=O)N[C@@H](C[C@@H]3CCNC3=O)C(=O)CO)cc12 [Compound A-5-d],EC50,SARS-CoV-2; [3],3500 nM
same,Liver Microsomal Stability (ER) Human,[1],0.09
same,Liver Microsomal Stability (ER) SD rat,[2],0.11
same,Liver Microsomal Stability (ER) Beagle dog,[2],0.07
same,Liver Microsomal Stability (ER) Mouse,[2],0.38
"COC(=O)[C@H](C[C@@H]1CCNC1=O)NC(=O)[C@H](CC(C)C)NC(=O)OCc1ccccc1 [Compound B-1-a, methyl (S)-2-((S)-2-(((benzyloxy)carbonyl)-amino)-4-methylpentanamido)-3-((S)-2-oxopyrrolidin-3-yl)propanoate]",anti-SARS-CoV2 (PRNT) in Vero E6 EC50 (μM),SARS-CoV-2; [3],inactive
"CC(C)C[C@H](NC(=O)OCc1ccccc1)C(=O)N[C@H](C=O)C[C@@H]1CCNC1=O [Compound B-1-b, benzyl ((S)-4-methyl-1-oxo-1-(((S)-1-oxo-3-((S)-2-oxopyrrolidin-3-yl)propan-2-yl)amino)pentan-2-yl)carbamate]",EC50,"SARS-CoV-2; Severe acute respiratory syndrome coronavirus 2, Vero C1008, 72 h",1130 nM
CC(C)C[C@H](NC(=O)OCc1ccccc1)C(=O)N[C@@H](C[C@@H]1CCNC1=O)C(=O)CCl [Compound B-1-c],EC50,SARS-CoV-2,2290 nM
C=CC(=O)[C@H](C[C@@H]1CCNC1=O)NC(=O)[C@H](CC(C)C)NC(=O)OCc1ccccc1 [Compound B-1-d],anti-SARS-CoV2 (PRNT) in Vero E6 EC50 (μM),SARS-CoV-2,inactive
"COC(=O)[C@H](C[C@@H]1CCNC1=O)NC(=O)[C@H](CC1CCCCC1)NC(=O)OCc1ccccc1 [Compound B-2-a, methyl (S)-2-((S)-2-(((benzyloxy)carbonyl)amino)-3-cyclohexylpropan-amido)-3-((S)-2-oxopyrrolidin-3-yl)propanoate]",anti-SARS-CoV2 (PRNT) in Vero E6 EC50 (μM),SARS-CoV-2; [3],inactive
"COC(=O)[C@H](C[C@@H]1CCNC1=O)NC(=O)[C@@H]1[C@@H]2[C@H](CN1C(=O)[C@@H](NC(=O)C(F)(F)F)C(C)(C)C)C2(C)C [Compound D-1-a, methyl (2S)-2-{[(1R,2S,5S)-3-[(2S)-3,3-dimethyl-2-(trifluoroacetamido)-butanoyl]-1,5-dihydrogenio-6,6-dimethyl-3-azabicyclo[3.1.0]hexan-2-yl]formamido}-3-[(3S)-2-oxopyrrolidin-3-yl]propanoate]",anti-SARS-CoV2 (PRNT) in Vero E6 EC50 (μM),SARS-CoV-2,inactive
CC(C)(C)[C@H](NC(=O)C(F)(F)F)C(=O)N[C@@H](CC1CCCCC1)C(=O)N[C@H](C#N)C[C@@H]1CCNC1=O [Compound D-4-a],Liver Microsomal Stability (ER) Human,[1],0.46
same,Liver Microsomal Stability (ER) SD rat,[2],0.29
same,Liver Microsomal Stability (ER) Beagle dog,[2],0.21
same,Liver Microsomal Stability (ER) Mouse,[2],0.72
C[C@@H](C=O)NC(=O)[C@H](CC1CCCCC1)N(C(=O)OCc1ccccc1)C1CC1 [Compound E-1-b],anti-SARS-CoV2 (PRNT) in Vero E6 EC50 (μM),SARS-CoV-2,inactive
"COC(=O)[C@H](C)NC(=O)[C@@H]1[C@@H]2[C@H](CN1C(=O)[C@@H](NC(=O)C(F)(F)F)C(C)(C)C)C2(C)C [Compound F-1-a, methyl ((1R,2S,5S)-3-((S)-3,3-dimethyl-2-(2,2,2-trifluoroacetamido)butanoyl)-6,6-dimethyl-3-azabicyclo[3.1.0]hexane-2-carbonyl)-L-alaninate]",anti-SARS-CoV2 (PRNT) in Vero E6 EC50 (μM),SARS-CoV-2,inactive
C[C@@H](C#N)NC(=O)[C@@H]1[C@@H]2[C@H](CN1C(=O)[C@@H](NC(=O)C(F)(F)F)C(C)(C)C)C2(C)C [Compound F-1-c],anti-SARS-CoV2 (PRNT) in Vero E6 EC50 (μM),SARS-CoV-2,inactive
C=CC(=O)N[C@H](C)NC(=O)[C@@H]1[C@@H]2[C@H](CN1C(=O)[C@@H](NC(=O)C(F)(F)F)C(C)(C)C)C2(C)C [Compound F-1-d],anti-SARS-CoV2 (PRNT) in Vero E6 EC50 (μM),SARS-CoV-2,inactive
"COC(=O)[C@@H](NC(=O)[C@@H]1[C@@H]2[C@H](CN1C(=O)[C@@H](NC(=O)C(F)(F)F)C(C)(C)C)C2(C)C)C(C)C [Compound F-2-a, methyl ((1R,2S,5S)-3-((S)-3,3-dimethyl-2-(2,2,2-trifluoroacetamido)-butanoyl)-6,6-dimethyl-3-azabicyclo[3.1.0]hexane-2-carbonyl)-L-valinate]",anti-SARS-CoV2 (PRNT) in Vero E6 EC50 (μM),SARS-CoV-2,inactive
CC(C)[C@@H](C#N)NC(=O)[C@@H]1[C@@H]2[C@H](CN1C(=O)[C@@H](NC(=O)C(F)(F)F)C(C)(C)C)C2(C)C [Compound F-2-c],anti-SARS-CoV2 (PRNT) in Vero E6 EC50 (μM),SARS-CoV-2,inactive
C=CC(=O)N[C@@H](NC(=O)[C@@H]1[C@@H]2[C@H](CN1C(=O)[C@@H](NC(=O)C(F)(F)F)C(C)(C)C)C2(C)C)C(C)C [Compound F-2-d],anti-SARS-CoV2 (PRNT) in Vero E6 EC50 (μM),SARS-CoV-2,inactive
C[C@@H](C#N)NC(=O)[C@@H]1[C@@H]2[C@H](CN1C(=O)[C@@H](NC(=O)C(F)(F)F)C1CC1)C2(C)C [Compound F-3-a],anti-SARS-CoV2 (PRNT) in Vero E6 EC50 (μM),SARS-CoV-2,inactive
C=CC(=O)N[C@@H](NC(=O)[C@@H]1[C@@H]2[C@H](CN1C(=O)[C@@H](NC(=O)C(F)(F)F)C1CC1)C2(C)C)C(C)C [Compound F-4-b],anti-SARS-CoV2 (PRNT) in Vero E6 EC50 (μM),SARS-CoV-2,inactive
